Reference: ChEMBL document CHEMBL4138121, “Selective photocytotoxicity of anthrols on cancer stem-like cells: The effect of quinone methides or reactive oxygen species” (Eur J Med Chem, 2017)
Calls of active or inactive are those of the source. No cut-off for these calls is given here.

Assays:
[1] = Induction of reactive oxygen species generation in HMLE-shEcad cells at 10 uM irradiated at 420 nm for 5 mins measured after 2 hrs by H2DCF-DA dye-based FACS analysis relative to non-irradiated cells; assay type: functional, Homo sapiens
HMLE [2] = assay: Cell cycle arrest in HMLE-shEcad cells assessed as accumulation at G2/M phase at 1 to 10 uM irradiated at 420 nm at 4 hrs post compound addition for 5 mins measured after 24 to 48 hrs by propidium iodide staining-based flow cytometric method; assay type: functional; conditions: Homo sapiens
MCF7 [3] = assay: Photocytotoxicity against human MCF7 cells assessed as growth inhibition irradiated at 420 nm at 4, 24, 48 hrs post compound addition for 5 mins measured after 72 hrs by MTT assay; assay type: functional, cell-based; conditions: MCF7, light or radiation study
[4] = Cell cycle arrest in HMLE-shGFP cells assessed as accumulation at S phase at 1 to 10 uM irradiated at 420 nm at 4 hrs post compound addition for 5 mins measured after 24 to 48 hrs by propidium iodide staining-based flow cytometric method; conditions: human
NCI-H460 [5] = assay: Photocytotoxicity against human H460 cells assessed as growth inhibition irradiated at 420 nm at 4, 24, 48 hrs post compound addition for 5 mins measured after 72 hrs by MTT assay; assay type: functional, cell-based; conditions: NCI-H460, light or radiation study
[6] = Photocytotoxicity against HMLE-shEcad cells assessed as growth inhibition irradiated at 350 nm at 4, 24, 48 hrs post compound addition for 5 mins measured after 72 hrs by MTT assay; assay type: functional, cell-based; conditions: Homo sapiens, light or radiation study
HMLE [7] = assay: Cytotoxicity against HMLE-shEcad cells at 10 uM irradiated at 420 nm at 4 hrs post compound addition for 5 mins measured after 48 hrs by propidium iodide staining-based flow cytometric method; assay type: functional, cell-based; conditions: Homo sapiens
NCI-H460 [8] = assay: Photocytotoxicity against human H460 cells assessed as growth inhibition irradiated at 350 nm at 4, 24, 48 hrs post compound addition for 5 mins measured after 72 hrs by MTT assay; assay type: functional, cell-based; conditions: NCI-H460, light or radiation study
[9] = Cell cycle arrest in HMLE-shEcad cells assessed as delay in G1/S phase at 1 to 10 uM after 24 to 48 hrs in absence of irradiation by propidium iodide staining-based flow cytometric method; conditions: human
[10] = Photocytotoxicity against HMLE-shGFP cells assessed as growth inhibition irradiated at 420 nm at 4, 24, 48 hrs post compound addition for 5 mins measured after 72 hrs by MTT assay; assay type: cell-based; conditions: Homo sapiens, light or radiation study
[11] = Dark toxicity against human HCT116 cells after 72 hrs by MTT assay; assay type: cell-based, HCT-116
[12] = Cell cycle arrest in HMLE-shGFP cells assessed as accumulation at G2/M phase at 1 to 10 uM irradiated at 420 nm at 4 hrs post compound addition for 5 mins measured after 24 to 48 hrs by propidium iodide staining-based flow cytometric method; conditions: human
HMLE [13] = assay: Cell cycle arrest in HMLE-shEcad cells assessed as accumulation at S phase at 1 to 10 uM irradiated at 420 nm at 4 hrs post compound addition for 5 mins measured after 24 to 48 hrs by propidium iodide staining-based flow cytometric method; assay type: functional; conditions: Homo sapiens
SUM-159-PT [14] = assay: Photocytotoxicity against human SUM159 cells assessed as growth inhibition irradiated at 420 nm at 4, 24, 48 hrs post compound addition for 5 mins measured after 72 hrs by MTT assay; assay type: functional, cell-based; conditions: light or radiation study
[15] = Cytotoxicity against HMLE-shGFP cells at 10 uM irradiated at 420 nm at 4 hrs post compound addition for 5 mins measured after 48 hrs by propidium iodide staining-based flow cytometric method; assay type: cell-based; conditions: human
HMLE [16] = assay: Anticlonogenic activity against HMLE-shEcad cells at 0.5 to 1 uM irradiated at 350 nm at 4 hrs post compound addition for 5 mins for 5 mins measured after 24 hrs by crystal violet staining-based assay; assay type: functional, cell-based; conditions: Homo sapiens
MCF7 [17] = assay: Photocytotoxicity against human MCF7 cells assessed as growth inhibition irradiated at 350 nm at 4, 24, 48 hrs post compound addition for 5 mins measured after 72 hrs by MTT assay; assay type: functional, cell-based; conditions: MCF7, light or radiation study
SUM-159-PT [18] = assay: Cell cycle arrest in human SUM159 cells in presence of irradiation; assay type: functional, cell-based
MCF7 [19] = assay: Cell cycle arrest in human MCF7 cells in presence of irradiation; assay type: functional, cell-based
[20] = Photocytotoxicity against HMLE-shGFP cells assessed as growth inhibition irradiated at 350 nm at 4, 24, 48 hrs post compound addition for 5 mins measured after 72 hrs by MTT assay; assay type: cell-based; conditions: Homo sapiens, light or radiation study
[21] = Induction of reactive oxygen species generation in HMLE-shGFP cells at 10 uM irradiated at 420 nm for 5 mins measured after 2 hrs by H2DCF-DA dye-based FACS analysis relative to non-irradiated cells; assay type: cell-based; conditions: human
[22] = Drug uptake in cytoplasm of HMLE-shEcad cells at 5 uM irradiated with UV-light measured after 2 to 3 hrs by confocal microscopic method; assay type: ADME, subcellular; conditions: human
[23] = Drug uptake in nucleus of HMLE-shEcad cells at 5 uM irradiated with UV-light measured after 2 to 3 hrs by confocal microscopic method; assay type: ADME, subcellular; conditions: human
[24] = Dark toxicity against human SUM159 cells after 72 hrs by MTT assay; assay type: cell-based, SUM-159-PT
HCT-116 [25] = assay: Photocytotoxicity against human HCT116 cells assessed as growth inhibition irradiated at 350 nm at 4, 24, 48 hrs post compound addition for 5 mins measured after 72 hrs by MTT assay; assay type: functional, cell-based; conditions: HCT-116, light or radiation study
[26] = Drug uptake in cytoplasm of HMLE-shGFP cells at 5 uM irradiated with UV-light measured after 2 to 3 hrs by confocal microscopic method; assay type: ADME, subcellular; conditions: human
[27] = Photocytotoxicity against HMLE-shEcad cells assessed as growth inhibition irradiated at 420 nm at 4, 24, 48 hrs post compound addition for 5 mins measured after 72 hrs by MTT assay; assay type: functional, cell-based; conditions: Homo sapiens, light or radiation study
[28] = Drug uptake in nucleus of HMLE-shGFP cells at 5 uM irradiated with UV-light measured after 2 to 3 hrs by confocal microscopic method; assay type: ADME, subcellular; conditions: human
HCT-116 [29] = assay: Photocytotoxicity against human HCT116 cells assessed as growth inhibition irradiated at 420 nm at 4, 24, 48 hrs post compound addition for 5 mins measured after 72 hrs by MTT assay; assay type: functional, cell-based; conditions: HCT-116, light or radiation study
[30] = Dark toxicity against HMLE-shGFP cells after 72 hrs by MTT assay; assay type: cell-based; conditions: human
[31] = Anticlonogenic activity against HMLE-shGFP cells at 0.5 to 1 uM irradiated at 350 nm at 4 hrs post compound addition for 5 mins measured after 24 hrs by crystal violet staining-based assay; assay type: ADME, cell-based; conditions: human
[32] = Dark toxicity against HMLE-shEcad cells after 72 hrs by MTT assay; assay type: cell-based; conditions: human
[33] = Dark toxicity against human H460 cells after 72 hrs by MTT assay; assay type: cell-based, NCI-H460
[34] = Drug uptake in nucleus of HMLE-shGFP cells at 5 uM irradiated at 420 nm for 5 mins measured after 2 to 3 hrs by confocal microscopic method; assay type: ADME, subcellular; conditions: human
[35] = Drug uptake in intracellular membranes of HMLE-shGFP cells at 5 uM irradiated at 420 nm for 5 mins measured after 2 to 3 hrs by confocal microscopic method; assay type: ADME, cell membranes, Intracellular membrane; conditions: human
Calf thymus DNA [36] = assay: Binding affinity to calf thymus DNA at 4.2 x 10^-5 M by fluorescence spectrocopic method; assay type: nucleic-acid assay; conditions: Bos taurus
[37] = Cell cycle arrest in HMLE-shEcad cells at 1 to 5 uM after 24 to 48 hrs in absence of irradiation by propidium iodide staining-based flow cytometric method; conditions: human
[38] = Drug uptake in plasma membranes of HMLE-shGFP cells at 5 uM irradiated at 420 nm for 5 mins measured after 2 to 3 hrs by confocal microscopic method; assay type: ADME, cell membranes, Plasma membrane; conditions: human
[39] = Cell cycle arrest in HMLE-shGFP cells assessed as delay in S/G2 phase at 5 uM irradiated at 420 nm at 4 hrs post compound addition for 5 mins measured after 24 to 48 hrs by propidium iodide staining-based flow cytometric method; conditions: human
Calf thymus DNA [40] = assay: Binding affinity to calf thymus DNA at 4.2 x 10^-5 M in presence of irradiation at 420 nm for 5 mins by fluorescence spectrocopic method; assay type: nucleic-acid assay; conditions: Bos taurus
HMLE [41] = assay: Cell cycle arrest in HMLE-shEcad cells assessed as delay in S/G2 phase at 5 uM irradiated at 420 nm at 4 hrs post compound addition for 5 mins measured after 24 to 48 hrs by propidium iodide staining-based flow cytometric method; assay type: functional; conditions: Homo sapiens
[42] = Drug uptake in cytoplasm of HMLE-shGFP cells at 10 uM in absence of irradiation measured after 2 to 3 hrs by confocal microscopic method; assay type: ADME, subcellular; conditions: human
[43] = Drug uptake in cytoplasm of HMLE-shGFP cells at 5 uM irradiated at 420 nm for 5 mins measured after 2 to 3 hrs by confocal microscopic method; assay type: ADME, subcellular; conditions: human
Calf thymus DNA [44] = assay: Binding affinity to calf thymus DNA at 4.2 x 10^-5 M by UV-vis spectrocopic method; assay type: nucleic-acid assay; conditions: Bos taurus
[45] = Dark toxicity against human MCF7 cells after 72 hrs by MTT assay; assay type: cell-based
[46] = Cell cycle arrest in HMLE-shGFP cells at 1 to 5 uM after 24 to 48 hrs in absence of irradiation by propidium iodide staining-based flow cytometric method; conditions: human
[47] = Drug uptake in nucleus of HMLE-shGFP cells at 10 uM in absence of irradiation measured after 2 to 3 hrs by confocal microscopic method; assay type: ADME, subcellular; conditions: human

## OCc1ccc2cc3ccccc3cc2c1
[1]
  fold change (FC): 7
HMLE [2]
  Activity: Active
MCF7 [3]
  IC50: 2000 nM
[4]
  Activity: Non-Toxic
NCI-H460 [5]
  IC50: 2000 nM
[6]
  IC50: 1000 nM
HMLE [7]
  Activity: Active
NCI-H460 [8]
  IC50: 1000 nM
[9]
  Activity: Toxic
[10]
  IC50: 10000 nM
[11]
  IC50 at 72 h: > 100000 nM
[12]
  Activity: Non-Toxic
HMLE [13]
  Activity: Active
SUM-159-PT [14]
  IC50: 1000 nM
[15]
  Activity: Toxic
HMLE [16]
  Activity: inactive
MCF7 [17]
  IC50: 500 nM
SUM-159-PT [18]
  Activity: inactive
MCF7 [19]
  Activity: inactive
[20]
  IC50: 600 nM
[21]
  fold change (FC): 4
[22]
  Drug uptake: Active
[23]
  Drug uptake: Not Active
[24]
  IC50 at 72 h: 13000 nM
HCT-116 [25]
  IC50: 1000 nM
[26]
  Drug uptake: Active
[27]
  IC50: 2000 nM
[28]
  Drug uptake: Not Active
HCT-116 [29]
  IC50: 2000 nM
[30]
  IC50 at 72 h: 33000 nM
[31]
  Activity: Non-Toxic
[32]
  IC50 at 72 h: 22000 nM
[33]
  IC50 at 72 h: 33000 nM

## OCc1cc2cc3ccccc3cc2cc1O
[34]
  Drug uptake: Not Active
MCF7 [3]
  IC50: 3000 nM
NCI-H460 [5]
  IC50: 10000 nM
[6]
  IC50: 2000 nM
HMLE [7]
  Activity: Active
NCI-H460 [8]
  IC50: 15000 nM
[35]
  Drug uptake: Active
Calf thymus DNA [36]
  Activity: inactive
[10]
  IC50: 1000 nM
[11]
  IC50 at 72 h: ≥ 100000 nM
[37]
  Activity: Non-Toxic
[38]
  Drug uptake: Active
[39]
  Activity: Toxic
Calf thymus DNA [40]
  Activity: Active
SUM-159-PT [14]
  IC50: 2000 nM
[15]
  Activity: Toxic
HMLE [41]
  Activity: Active
HMLE [16]
  Activity: Active
MCF7 [17]
  IC50: 2000 nM
[42]
  Drug uptake: Active
SUM-159-PT [18]
  Activity: inactive
[43]
  Drug uptake: Active
MCF7 [19]
  Activity: inactive
[20]
  IC50: 700 nM
Calf thymus DNA [44]
  Activity: inactive
[24]
  IC50 at 72 h: 11000 nM
HCT-116 [25]
  IC50: 2000 nM
[27]
  IC50: 1000 nM
HCT-116 [29]
  IC50: 1000 nM
[30]
  IC50 at 72 h: 11000 nM
[45]
  IC50 at 72 h: ≥ 100000 nM
[46]
  Activity: Non-Toxic
[32]
  IC50 at 72 h: 17000 nM
[47]
  Drug uptake: Not Active
[33]
  IC50 at 72 h: ≥ 100000 nM
